Assay results as given in patent publication US20120040008A1, “PHARMACEUTICAL COMPOSITIONS OF METABOTROPIC GLUTAMATE 5 RECEPTOR (MGLU5) ANTAGONISTS” (priority 2010, published 2012).
Values after ≈ are worked out from the molar mass of the structure shown.

How the values were obtained:
Format in all cases: physicochemical
log D at pH 7.4 = assay: log D at pH 7.4
[1] = aqueous solubility of the free base, pH-dependent; details: aqueous medium
BCS classification = details: because of pH dependent solubility in physiological range

- logD (log D at pH 7.4): > 3
- solubility ([1]; aqueous buffer, alkaline conditions, pH 7): 0.3 µg/mL (≈ 0.000921 mM)
- solubility ([1]; simulated gastric fluid, acidic conditions, pH 1): 3200 µg/mL (≈ 9.82 mM)
- BCS classification (BCS classification): BCS class 2
Structure (SMILES): Cc1nc(C#Cc2ccnc(Cl)c2)c(C)n1-c1ccc(F)cc1 [2-Chloro-4-[1-(4-fluoro-phenyl)-2,5-dimethyl-1H-imidazol-4-ylethynyl]-pyridine]
